Results: patent US11390617B2, “Methods of treating non-Hodgkin lymphoma using 2-(2,6-dioxopiperidin-3-yl)-4-((2-fluoro-4-((3-morpholinoazetidin-1-yl)methyl)benzyl)amino)isoindoline-1,3-dione” (Celgene Corporation, priority 2019, dated 2022)

Assays:
Assay in all cases: NHL cell line viability/apoptosis 384-well flow cytometry assay
Type in all cases: cell-based
[1] = system: CARNAVAL; conditions: CARNAVAL (DLBCL), 120 hours
Method: (§1) The following exemplary anti-proliferative assay uses exemplary non-Hodgkin lymphoma (NIL) cell lines (including diffuse large B-cell lymphoma (DLBCL), follicular lymphoma (FL), and mantle cell lymphoma (MCL)) (Table 5). The in vitro growth inhibitory activity of Compound 1 described herein was evaluated using a 384-well flow cytometry assay.
(§2) The cell lines in Table 5 were plated in 384-well flat bottom plates and assessed with increasing concentrations of compound ranging from 0.00015 to 10 μM or dimethyl sulfoxide (DMSO) control. The final concentration of DMSO was 0.1% (v/v). Following the addition of Compound 1 or DMSO and incubation for 120 hours, cell number and cell death were analyzed by flow cytometry (Attune®, Thermo Fisher) using Annexin V and the live-cell impermeant DNA dye, DRAQ7. Phosphatidylserine translocates from the inner layer to the outer layer of the cell membrane early in apoptosis and Annexin V binds to the exposed phosphatidylserine found on the surface of an apoptotic cell. The vital dye DRAQ7 is excluded by intact live cells and only stains cells that have died as a result of apoptosis or necrosis.
(§3) Flow cytometry data analysis was then performed using the Flow Jo_v10 software to determine the number of viable cells (Annexin V and DRAQ7 double negative staining cells) and percentage of apoptotic cells (Annexin V positive cells) for each condition. The live cell count for every concentration was normalized to the DMSO control (considered as 100%) to calculate the percentage of viable cells remaining after treatment and graphed using GraphPad Prism 7.03. The IC50 (50% inhibitory concentration) and Emax (maximum efficacy achieved) values were then calculated by performing nonlinear regression curve fitting using log(inhibitor) vs. normalized response—variable slope analysis on GraphPad Prism 7.03. Area under the curve (AUC) was calculated by performing area under curve analysis on GraphPad Prism 7.03. Similarly, for apoptosis analysis, the percentage of apoptosis combining both “early” (Annexin V positive and DRAQ7 negative) and “late” apoptosis (Annexin V and DRAQ7 positive) cell gates relative to DMSO was graphed using GraphPad Prism 7.03. The AUC, EC50 (concentration of Compound 1 that produces half-maximal apoptosis response) and Ymax (maximal percentage of apoptosis achieved) values from apoptosis curves were calculated by performing area under curve analysis and nonlinear regression curve fitting using log(agonist) vs. normalized response—Variable slope analysis on GraphPad Prism 7.03.
(§4) In Table 6, dose-response proliferation curves for the panel of NHL cell lines and non-linear curve-fit regression were used to determine IC50, AUC, and Emax for % viable cells (Emax for viability varies between 100 at low doses and 0 at high doses, which corresponds to inhibition of all viable cells), and dose-response apoptosis curves were used to determine the EC50, AUC, and Ymax for % apoptosis (Ymax for apoptosis varies from 0 at low doses and 100 at higher doses which corresponds to death of all cells). Tumor cells were exposed to serial dilutions (0.00015 to 10 μM) of Compound 1 or dimethyl sulfoxide (DMSO) control for 5 days. Viability and apoptosis for all cell lines was determined by Annexin V/[…] flow cytometry.

[2] = system: DB; conditions: 120 hours
Method: as §1, §2, §3, §4

[3] = system: HT; conditions: HT (DLBCL), 120 hours
Method: as §1, §2, §3, §4

[4] = system: NU-DHL-1; conditions: NU-DHL-1 (DLBCL), 120 hours
Method: as §1, §2, §3, §4

[5] = system: NU-DUL-1; conditions: NU-DUL-1 (DLBCL), 120 hours
Method: as §1, §2, §3, §4

[6] = system: OCI-LY1; conditions: OCI-LY1 (DLBCL), 120 hours
Method: as §1, §2, §3, §4

[7] = system: OCI-LY7; conditions: OCI-LY7 (DLBCL), 120 hours
Method: as §1, §2, §3, §4

[8] = system: RL; conditions: RL (FL), 120 hours
Method: as §1, §2, §3, §4

[9] = system: STR428; conditions: STR428 (DLBCL), 120 hours
Method: as §1, §2, §3, §4

[10] = system: SU-DHL-8; conditions: SU-DHL-8 (DLBCL), 120 hours
Method: as §1, §2, §3, §4

[11] = system: U-2946; conditions: U-2946 (DLBCL), 120 hours
Method: as §1, §2, §3, §4

[12] = system: WSU-DLCL; conditions: WSU-DLCL (DLBCL), 120 hours
Method: as §1, §2, §3, §4

[13] = read-out: IC50 (% Viable Cells)
[14] = Homo sapiens, read-out: IC50 (% Viable Cells)

## O=C1CC[C@H](N2C(=O)c3cccc(NCc4ccc(CN5CC(N6CCOCC6)C5)cc4F)c3C2=O)C(=O)N1 [Compound 1, (S)-2-(2,6-dioxopiperidin-3-yl)-4-((2-fluoro-4-((3-morpholinoazetidin-1-yl)methyl)benzyl)amino)isoindoline-1,3-dione]
[1]
  AUC (% Viable Cells): 110.6
  AUC (Apoptosis): 708.7
  EC50: 152 nM
  Emax (% Viable Cells): 7.134%
  Ymax (Apoptosis): 77.84%
[1]; [13]
  IC50: 9.12 nM
[2]
  AUC (% Viable Cells): 941.4
  AUC (Apoptosis): 80.31
  Emax (% Viable Cells): 89.46%
  Ymax (Apoptosis): 11.62%
[2]; Homo sapiens
  EC50: 68.8 nM
[2]; [14]
  IC50: 10000 nM
[3]
  AUC (% Viable Cells): 396.7
  AUC (Apoptosis): 225.3
  Emax (% Viable Cells): 30.39%
  Ymax (Apoptosis): 25.16%
[3]; Homo sapiens
  EC50: 66.2 nM
[3]; [14]
  IC50: 319 nM
[4]; Homo sapiens
  EC50: 1.27 nM
[4]; [14]
  IC50: 1.07 nM
[4]
  AUC (% Viable Cells): 12.37
  AUC (Apoptosis): 981.8
  Emax (% Viable Cells): 0.4919%
  Ymax (Apoptosis): 99.17%
[5]; Homo sapiens
  EC50: 63 nM
[5]; [14]
  IC50: 35.3 nM
[5]
  AUC (% Viable Cells): 22.12
  AUC (Apoptosis): 962.8
  Emax (% Viable Cells): 0.0228%
  Ymax (Apoptosis): 99.84%
[6]; Homo sapiens
  EC50: 33.4 nM
[6]; [14]
  IC50: 6 nM
[6]
  AUC (% Viable Cells): 22.77
  AUC (Apoptosis): 852.3
  Emax (% Viable Cells): 1.037%
  Ymax (Apoptosis): 90.09%
[7]; Homo sapiens
  EC50: 16.3 nM
[7]; [14]
  IC50: 6.48 nM
[7]
  AUC (% Viable Cells): 48.18
  AUC (Apoptosis): 682.7
  Emax (% Viable Cells): 4.191%
  Ymax (Apoptosis): 71.18%
[8]; Homo sapiens
  EC50: 157 nM
[8]; [14]
  IC50: 8.76 nM
[8]
  AUC (% Viable Cells): 234.8
  AUC (Apoptosis): 115.9
  Emax (% Viable Cells): 21.55%
  Ymax (Apoptosis): 13.93%
[9]
  AUC (% Viable Cells): 43.48
  AUC (Apoptosis): 905.9
  EC50: 102 nM
  Emax (% Viable Cells): 1.227%
  Ymax (Apoptosis): 95.17%
[9]; [13]
  IC50: 94.7 nM
[10]; Homo sapiens
  EC50: 602 nM
[10]; [14]
  IC50: 486 nM
[10]
  AUC (% Viable Cells): 119.5
  AUC (Apoptosis): 363.2
  Emax (% Viable Cells): 2.081%
  Ymax (Apoptosis): 85.44%
[11]
  AUC (% Viable Cells): 45.47
  AUC (Apoptosis): 762.6
  EC50: 192 nM
  Emax (% Viable Cells): 0.4821%
  Ymax (Apoptosis): 93.34%
[11]; [13]
  IC50: 4.6 nM
[12]
  AUC (% Viable Cells): 341.9
  AUC (Apoptosis): 565.1
  EC50: 18 nM
  Emax (% Viable Cells): 27.83%
  Ymax (Apoptosis): 59.91%
[12]; [13]
  IC50: 142 nM
